Results reported in paper PMC5056380, “Characterization of WY 14,643 and its Complex with Aldose Reductase” (Scientific Reports, 2016).
Read-outs that look alike come from different tables or passages of the source.

Tests used:
[1] = molecular target: T1, human Aldose reductase (hAR) (Homo sapiens, UniProt P15121); test: Fluorescence titration (quenching) of cofactor binding to hAR; details: for Kd: 0.5 μM protein
T1 construct: hexa-His (cleaved yes); made in house; host or cells: E. coli BL21
Method: (§1) The fluorescence intensities of hAR decreased gradually when the concentrations of quenchers (i.e. inhibitor and cofactors) were increased. The observed fluorescence data were used for calculating the fluorescence quenching (Q% = (F^0 − F)/F^0) where F is the measured fluorescence and F^0 is the fluorescence in the absence of quenchers.
(§2) Fluorescence titration was performed for the binding of NADPH to hAR at a protein concentration of 0.5 μM in 5 mM sodium phosphate buffer (pH 7.0) containing 100 μM DTT. The titration for NADP^+ binding to hAR was conducted at a protein concentration of 0.5 μM in 10 mM Tris-HCl buffer (pH 9.0) containing 100 μM DTT in 1.4 ml quartz cuvette by measuring fluorescence by SpectraMax M2 (Molecular Device, CA). The concentration of protein•NADP^+/NADPH complexes formed were measured by extensive quenching of protein fluorescence by varying the concentrations of NADP^+/NADPH at excitation and emission wavelengths of 295 and 365 nm, respectively following the procedure described by[43][44]. This method was extended for inhibitor (WY 14,643) binding to enzyme•NADPH complex at protein concentration of 0.5 μM in 5 mM sodium phosphate buffer (pH 7.0) containing 100 μM DTT by keeping saturated fixed 60 μM concentration of NADPH and by varying the concentrations of WY 14,643. The binding of inhibitor (WY 14,643) to enzyme•NADP^+ complex was measured at 0.5 μM protein concentration in 10 mM Tris-HCl buffer (pH 9.0) containing 100 μM DTT by keeping saturated fixed 60 μM concentration of NADP^+ and varying the WY 14,643. The concentrations of enzyme•NADP^+/NADPH•inhibitor complex formed were measured by quenching of fluorescence protein•NADP^+/NADPH complexes with excitation and emission wavelengths 295 and 365 nm, respectively.
The methodology described by van de Weert 2010 was followed in the binding constant determination. The fractional saturation (α) of protein by cofactors (NADP^+/NADPH) and by inhibitor (WY 14,643) binding to protein can be expressed in the form of fluorescence as follows;
The binding dissociation constants and stoichiometry for the binding of quenchers (cofactors and inhibitor) to protein were calculated by non-linear fitting to the experimental fluorescence data and results are shown in Table 1.

hAR•NADP^+ = molecular target: T2, hAR•NADP^+ (Homo sapiens, UniProt P15121); test: Fluorescence titration of inhibitor binding to the hAR•NADP^+ binary complex; details: 60 μM NADP^+, 10 mM Tris-HCl pH 9.0
T2 construct: hexa-His (cleaved yes); made in house; host or cells: E. coli BL21
Method: as §1
as §2, with “This method was extended for inhibitor (WY 14,643) binding to enzyme•NADPH complex at protein concentration of 0.5 μM in 5 mM sodium phosphate buffer (pH 7.0) containing 100 μM DTT by keeping saturated fixed 60 μM concentration of NADPH and by varying the concentrations of WY 14,643.” left out, “The concentrations of enzyme•NADP^+/NADPH•inhibitor complex formed were measured by quenching of fluorescence protein•NADP^+/NADPH complexes with excitation and emission wavelengths 295 and 365 nm, respectively.” left out

hAR•NADPH = molecular target: T3, hAR•NADPH (Homo sapiens, UniProt P15121); test: Fluorescence titration of inhibitor binding to the hAR•NADPH binary complex; details: 60 μM NADPH, 5 mM sodium phosphate pH 7.0
T3 construct: hexa-His (cleaved yes); made in house; host or cells: E. coli BL21
Method: as §1
as §2, with “This method was extended for inhibitor (WY 14,643) binding to enzyme•NADPH complex at protein concentration of 0.5 μM in 5 mM sodium phosphate buffer (pH 7.0) containing 100 μM DTT by keeping saturated fixed 60 μM concentration of NADPH and by varying the concentrations of WY 14,643.” left out, “The concentrations of enzyme•NADP^+/NADPH•inhibitor complex formed were measured by quenching of fluorescence protein•NADP^+/NADPH complexes with excitation and emission wavelengths 295 and 365 nm, respectively.” left out

[2] = molecular target: T1, human Aldose reductase (hAR); set-up: method as in PMID 17194029; details: cited from earlier work
rat livers = tested on: rat livers; set-up: method as in PMID 195342; details: cited from earlier work

With `NC(=O)C1=CN([C@@H]2O[C@H](COP(=O)(O)OP(=O)(O)OC[C@H]3O[C@@H](n4cnc5c(N)ncnc54)[C@H](OP(=O)(O)O)[C@@H]3O)[C@@H](O)[C@H]2O)C=CC1` [NADPH] the Kd ([1]; NADPH binding to apo hAR, 5 mM sodium phosphate pH 7.0, 100 μM DTT, read-out: Kd(E-NADPH), equilibrium dissociation constant) was 480 ± 40 nM and the “stoichiometry coefficient (n), E-NADPH” value ([1]; NADPH binding to apo hAR, 5 mM sodium phosphate pH 7.0) was 1.25 ± 0.1.
For `NC(=O)c1ccc[n+]([C@@H]2O[C@H](COP(=O)([O-])OP(=O)(O)OC[C@H]3O[C@@H](n4cnc5c(N)ncnc54)[C@H](OP(=O)(O)O)[C@@H]3O)[C@@H](O)[C@H]2O)c1` [NADP^+], the Kd ([1]; NADP^+ binding to apo hAR, 10 mM Tris-HCl pH 9.0, 100 μM DTT, read-out: Kd(E-NADP^+), equilibrium dissociation constant) was 210 ± 10 nM, the “stoichiometry coefficient (n), E-NADP^+” value ([1]; NADP^+ binding to apo hAR, 10 mM Tris-HCl pH 9.0) was 1.05 ± 0.03 and the “fold higher affinity of NADP^+ than NADPH for hAR” value ([1]; fluorescence quenching data, oxidized vs reduced cofactor) was 2 fold.
With `Cc1cccc(Nc2cc(Cl)nc(SCC(=O)O)n2)c1C` [WY 14,643, [4-Chloro-6-(2,3-xylidino)-2-pyrimidinylthio]acetic Acid] the Kd (hAR•NADP^+; 0.5 μM protein) was 104 nM, the “stoichiometry coefficient (n), binding with hAR•NADP^+ complex” value (hAR•NADP^+) was 1.37 ± 0.05 and the Kd (hAR•NADPH; 0.5 μM protein) was 110 nM. The “stoichiometry coefficient (n), binding with hAR•NADPH complex” value (hAR•NADPH) was 1.25 ± 0.06, the “Kii (intercept inhibition constant)” value ([2]; forward reaction (reduction of DL-glyceraldehyde)) was 1.8 µM and the Ki ([2]; forward reaction (reduction of DL-glyceraldehyde), read-out: Kis (the slope inhibition constant)) was 1800 nM. The mode of inhibition ([2]; oxidation of benzyl alcohol) was “pure non-competitive”, the pattern of inhibition ([2]; with respect to the reduction of DL-glyceraldehyde) was “classical non-competitive” and the “increased capacity in oxidization of palmitoyl-coenzyme A” value (rat livers) was 18 fold.
